Source: patent US20250145633A1, “SUBSTITUTED FURANOPYRIMIDINE COMPOUNDS AS PDE1 INHIBITORS” (Dart NeuroScience, LLC, priority 2017, published 2025)

These compounds were tested against human PDE1B enzyme (Homo sapiens (Human), UniProt Q01064) (assay: IMAP TR-FRET PDE1B enzymatic assay). Conditions: negative log of half-maximal molar inhibitory concentration; 200 nM FAM-cAMP; values given as bins.
Format: biochemical
Procedure: PDE1B inhibition was determined by an IMAP TR-FRET assay. The IMAP TR-FRET PDE assay was optimized for concentration of enzyme, Calmodulin, cAMP or cGMP substrate, DMSO tolerance, and incubation time.
Into each well of a solid white 1536 well plate (Corning) was dispensed 250 pg full-length recombinant NH-terminal GST tagged human PDE1B enzyme (BPS Bioscience Cat #60011, San Diego, CA) in 2.5 μL IMAP BSA reaction buffer (Molecular Devices, Sunnyvale, CA) containing 10 U/ml Calmodulin and 2.5 mM CaCl2) (Sigma Aldrich.) After a brief centrifugation, 30 nL of compound was added by transfer from 1 mM stock in DMSO using a Kalypsys 1536 Pintool. Plates were incubated for 5 minutes at room temperature before dispensing 1.5 μL of 533 nM 5-carboxy fluorescein (FAM)-labeled cAMP (Molecular Devices, Sunnyvale, CA) for a final concentration of 200 nM. After a brief centrifugation, the plates were incubated for 30 minutes at room temperature. The assay was terminated by adding 5 μL IMAP binding reagent/Tb complex (Molecular Devices, Sunnyvale, CA) to each well.
Plates were incubated for 1 hour at room temperature and were read on a Viewlux multimode plate reader (Perkin Elmer). The instrument was set to excite using the DUG11 filter and measure using 490/10 nm and 520/10 nm filters. Ratios of acceptor and donor were then calculated.
For IC50 calculations, the values of % efficacy versus a series of compound concentrations were then plotted using non-linear regression analysis of sigmoidal dose-response curves generated with the equation Y=[B+(T−B)]/[1+10((Log EC50−X)×Hill Slope)], where Y=percent activity, B=minimum percent efficacy, T=maximum percent efficacy, X=logarithm of compound and Hill Slope=slope factor or Hill coefficient. The IC50 value was determined by the concentration causing a half-maximal percent efficacy.
Cc1oc2ncnc(NC3(C)CC3)c2c1C(=O)NCc1ccc(F)c(C#N)c1 [Example 88, N-[(3-Cyano-4-fluorophenyl)methyl]-6-methyl-4-[(1-methylcyclopropyl)amino]furo[2,3-d]pyrimidine-5-carboxamide] was tested, and the “PDE1b (pIC50)” value was greater than 8. With Cc1oc2ncnc(NC3(C)CC3)c2c1C(=O)NCc1cccc(F)c1 [Example 217, N-[(3-Fluorophenyl)methyl]-6-methyl-4-[(1-methylcyclopropyl)amino]furo[2,3-d]pyrimidine-5-carboxamide] the “PDE1b (pIC50)” value was greater than 8. With CCCc1ccnc(C2CCN(C(=O)c3c(C)oc4ncnc(NC5(C)CC5)c34)CC2)n1 [Example 369, 6-Methyl-N-(1-methylcyclopropyl)-5-[4-(4-propylpyrimidin-2-yl)piperidine-1-carbonyl]furo[2,3-d]pyrimidin-4-amine] the “PDE1b (pIC50)” value was greater than 8. For Cc1oc2ncnc(NC3(C)CC3)c2c1C(=O)N1CCNC(c2ccc(F)cc2)C1 (centres unmarked) [Example 536, 5-[3-(4-Fluorophenyl)piperazine-1-carbonyl]-6-methyl-N-(1-methylcyclopropyl)furo[2,3-d]pyrimidin-4-amine], the “PDE1b (pIC50)” value was greater than 8. In the case of Cc1nc(C2CCN(C(=O)c3c(C)oc4ncnc(NC5(C)CC5)c34)C2)ncc1F (centres unmarked) [Example 800, 5-[3-(5-Fluoro-4-methylpyrimidin-2-yl)pyrrolidine-1-carbonyl]-6-methyl-N-(1-methylcyclopropyl)furo[2,3-d]pyrimidin-4-amine], the “PDE1b (pIC50)” value was greater than 8. For Cc1oc2ncnc(NC3(C)CC3)c2c1C(=O)NCc1ccc(OCF)cn1 [Example 11, N-((5-(Fluoromethoxy)pyridin-2-yl)methyl)-6-methyl-4-((1-methylcyclopropyl)amino)furo[2,3-d]pyrimidin-5-carboxamide], the “PDE1b (pIC50)” value was greater than 8. In the case of Cc1oc2ncnc(NC3(C)CC3)c2c1C(=O)N1CCC(c2nccc(NCCF)n2)CC1 [Example 26, (4-(4-((2-Fluoroethyl)amino)pyrimidin-2-yl)piperidin-1-yl)(6-methyl-4-((1-methylcyclopropyl)amino)furo[2,3-d]pyrimidin-5-yl)methanone], the “PDE1b (pIC50)” value was greater than 8. In the case of Cc1oc2ncnc(NC3(C)CC3)c2c1C(=O)N1CCCC(c2ccc(F)cc2)CC1 (centres unmarked) [Example 296, 5-[4-(4-Fluorophenyl)azepane-1-carbonyl]-6-methyl-N-(1-methylcyclopropyl)furo[2,3-d]pyrimidin-4-amine], the “PDE1b (pIC50)” value was greater than 8. For CCc1cc(CNC(=O)c2c(C)oc3ncnc(NC4(C)CC4)c23)no1 [Example 322, N-[(5-Ethyl-1,2-oxazol-3-yl)methyl]-6-methyl-4-[(1-methylcyclopropyl)amino]furo[2,3-d]pyrimidine-5-carboxamide], the “PDE1b (pIC50)” value was greater than 8. In the case of Cc1oc2ncnc(NC3(C)CC3)c2c1C(=O)N1CCc2c(ncnc2OC2CCC2)C1 [Example 810, 5-{4-Cyclobutoxy-5H,6H,7H,8H-pyrido[3,4-d]pyrimidine-7-carbonyl}-6-methyl-N-(1-methylcyclopropyl)furo[2,3-d]pyrimidin-4-amine], the “PDE1b (pIC50)” value was greater than 8. Cc1oc2ncnc(NC3(C)CC3)c2c1C(=O)N1CCC(F)(c2ccc(F)cc2)C1 (centres unmarked) [Example 133, 5-[3-Fluoro-3-(4-fluorophenyl)pyrrolidine-1-carbonyl]-6-methyl-N-(1-methylcyclopropyl)furo[2,3-d]pyrimidin-4-amine] was tested, and the “PDE1b (pIC50)” value was greater than 8. For Cc1oc2ncnc(NC3(C)CC3)c2c1C(=O)N1CCC(c2ncc(Cl)cn2)CC1 [Example 344, 5-[4-(5-Chloropyrimidin-2-yl)piperidine-1-carbonyl]-6-methyl-N-(1-methylcyclopropyl)furo[2,3-d]pyrimidin-4-amine], the “PDE1b (pIC50)” value was greater than 8.

Same assay, conditions: negative log of half-maximal molar inhibitory concentration; 200 nM FAM-cAMP; values given as bins; read-out: PDE1b (pIC50) (converted)
Compound Cc1oc2ncnc(NC3(C)CC3)c2c1C(=O)Nc1ccc(C2CCOCC2)nc1 [Example 735, 6-Methyl-4-[(1-methylcyclopropyl)amino]-N-[6-(oxan-4-yl)pyridin-3-yl]furo[2,3-d]pyrimidine-5-carboxamide] has an IC50 of 100 to 1000 nM. In the case of Cc1oc2ncnc(NC3(C)CC3)c2c1C(=O)NCc1ccc(F)cn1 [Example 49, N-[(5-Fluoropyridin-2-yl)methyl]-6-methyl-4-[(1-methylcyclopropyl)amino]furo[2,3-d]pyrimidine-5-carboxamide], the IC50 was 10 to 100 nM. Cc1oc2ncnc(NC3(C)CC3)c2c1C(=O)N1CCCCC(c2ccc(F)cc2)C1 (centres unmarked) [Example 295, 5-[3-(4-Fluorophenyl)azepane-1-carbonyl]-6-methyl-N-(1-methylcyclopropyl)furo[2,3-d]pyrimidin-4-amine] showed an IC50 of 10 to 100 nM. Cc1oc2ncnc(NC3(C)CC3)c2c1C(=O)N1CCc2c(ncnc2N(C)C2CC2)C1 [Example 790, 5-{4-[Cyclopropyl(methyl)amino]-5H,6H,7H,8H-pyrido[3,4-d]pyrimidine-7-carbonyl}-6-methyl-N-(1-methylcyclopropyl)furo[2,3-d]pyrimidin-4-amine] showed an IC50 of 10 to 100 nM. In the case of Cc1oc2ncnc(NC3(C)CC3)c2c1C(=O)NCCc1ccc(F)cc1 [Example 50, N-[2-(4-Fluorophenyl)ethyl]-6-methyl-4-[(1-methylcyclopropyl)amino]furo[2,3-d]pyrimidine-5-carboxamide], the IC50 was 10 to 100 nM. Compound COc1ccc(CN(CCCO)C(=O)c2c(C)oc3ncnc(NC4(C)CC4)c23)cc1 [Example 573, N-(3-Hydroxypropyl)-N-[(4-methoxyphenyl)methyl]-6-methyl-4-[(1-methylcyclopropyl)amino]furo[2,3-d]pyrimidine-5-carboxamide] has an IC50 of 10 to 100 nM. Cc1oc2ncnc(NC3(C)CC3)c2c1C(=O)N1CCc2cccc(OCF)c2C1 [Example 766, 5-[8-(Fluoromethoxy)-1,2,3,4-tetrahydroisoquinoline-2-carbonyl]-6-methyl-N-(1-methylcyclopropyl)furo[2,3-d]pyrimidin-4-amine] gave an IC50 of 10 to 100 nM. With Cc1oc2ncnc(NC3(C)CC3)c2c1C(=O)N1CCC(c2ccc(OCF)cc2)C1 (centres unmarked) [Example 771, 5-{3-[4-(Fluoromethoxy)phenyl]pyrrolidine-1-carbonyl}-6-methyl-N-(1-methylcyclopropyl)furo[2,3-d]pyrimidin-4-amine] the IC50 was 10 to 100 nM. Work on Cc1oc2ncnc(NC3(C)CC3)c2c1C(=O)N1CCc2c(cc[nH]c2=O)C1 [Example 337, 6-{6-Methyl-4-[(1-methylcyclopropyl)amino]furo[2,3-d]pyrimidine-5-carbonyl}-1,2,5,6,7,8-hexahydro-2,6-naphthyridin-1-one] yielded an IC50 of 10 to 100 nM. For Cc1oc2ncnc(NC3(C)CC3)c2c1C(=O)NCc1cc2ccc(F)cc2[nH]c1=O [Example 584, N-[(7-Fluoro-2-oxo-1,2-dihydroquinolin-3-yl)methyl]-6-methyl-4-[(1-methylcyclopropyl)amino]furo[2,3-d]pyrimidine-5-carboxamide], the IC50 was 10 to 100 nM. Compound CCC(NC(=O)c1c(C)oc2ncnc(NC3(C)CC3)c12)C1CC1 (centres unmarked) [Example 401, N-(1-Cyclopropylpropyl)-6-methyl-4-[(1-methylcyclopropyl)amino]furo[2,3-d]pyrimidine-5-carboxamide] has an IC50 of 10 to 100 nM. Cc1ccnc(CNC(=O)c2c(C)oc3ncnc(NC4(C)CC4)c23)c1 [Example 466, 6-Methyl-4-[(1-methylcyclopropyl)amino]-N-[(4-methylpyridin-2-yl)methyl]furo[2,3-d]pyrimidine-5-carboxamide] showed an IC50 of 10 to 100 nM. For CNc1ncnc2c1CCN(C(=O)c1c(C)oc3ncnc(NC4(C)CC4)c13)C2 [Example 792, 6-Methyl-5-[4-(methylamino)-5H,6H,7H,8H-pyrido[3,4-d]pyrimidine-7-carbonyl]-N-(1-methylcyclopropyl)furo[2,3-d]pyrimidin-4-amine], the IC50 was 10 to 100 nM. With Cc1ncccc1NC(=O)c1c(C)oc2ncnc(NC3(C)CC3)c12 [Example 181, 6-Methyl-4-[(1-methylcyclopropyl)amino]-N-(2-methylpyridin-3-yl)furo[2,3-d]pyrimidine-5-carboxamide] the IC50 was 10 to 100 nM. With Cc1oc2ncnc(NC3(C)CC3)c2c1C(=O)N1CC=C(c2ncc(F)cn2)CC1 [Example 15, 5-[4-(5-Fluoropyrimidin-2-yl)-1,2,3,6-tetrahydropyridine-1-carbonyl]-6-methyl-N-(1-methylcyclopropyl)furo[2,3-d]pyrimidin-4-amine] the IC50 was 10 to 100 nM. For Cc1oc2ncnc(NC3(C)CC3)c2c1C(=O)N1CCc2c(ncnc2N2CC[C@@H](F)C2)C1 [Example 18, 5-{4-[(3R)-3-Fluoropyrrolidin-1-yl]-5H,6H,7H,8H-pyrido[3,4-d]pyrimidine-7-carbonyl}-6-methyl-N-(1-methylcyclopropyl)furo[2,3-d]pyrimidin-4-amine], the IC50 was 10 to 100 nM. Work on Cc1oc2ncnc(NC3(C)CC3)c2c1C(=O)NCc1ccnc(F)c1 [Example 164, N-[(2-Fluoropyridin-4-yl)methyl]-6-methyl-4-[(1-methylcyclopropyl)amino]furo[2,3-d]pyrimidine-5-carboxamide] yielded an IC50 of 10 to 100 nM.
